Measurements reported in patent US20230321246A1, “HIGH-STRENGTH ORAL TAXANE COMPOSITIONS AND METHODS” (ATHENEX HK INNOVATIVE LIMITED, priority 2017, published 2023).

Experiments:
in vivo [1] = settings: male, beagle, dog, iv, 2 mg/kg
in vivo [2] = settings: male, beagle, dog, iv, 2 mg/kg; remark: listed apart in the source

Which AUC(0-inf) (in vivo [1]) does the source give for `CC(=O)O[C@H]1C(=O)[C@@]2(C)[C@H]([C@H](OC(=O)c3ccccc3)[C@]3(O)C[C@H](OC(=O)[C@H](O)[C@@H](NC(=O)c4ccccc4)c4ccccc4)C(C)=C1C3(C)C)[C@]1(OC(C)=O)CO[C@@H]1C[C@@H]2O` [Paclitaxel, paclitaxel] here?
Its AUC(0-inf) is 1950 ng·h/mL.

And the AUC(0-t) (in vivo [1])?
Its AUC(0-t) is 1840 ng·h/mL.

What about the Cmax (in vivo [1]) of the same molecule?
Its Cmax is 1690 ng/mL.

What about the MRT (in vivo [1]) of the same molecule?
The MRT was 3.67 h.

And the Tmax (in vivo [1])?
Its Tmax is 1 h.

And the Vd (in vivo [1])?
The Vd was 6.59 L/kg.

And the clearance (in vivo [1])?
The clearance was 19.3 mL/min/kg.

And the AUC(0-inf) (in vivo [2])?
The AUC(0-inf) was 768 ng·h/mL.

What about the AUC(0-t) (in vivo [2]) of the same molecule?
The AUC(0-t) was 701 ng·h/mL.

And the Cmax (in vivo [2])?
Its Cmax is 811 ng/mL.

What about the MRT last (in vivo [2]) of the same molecule?
Its MRT last is 5.26 h.

What about the Tmax (in vivo [2]) of the same molecule?
The Tmax was 0 h.

And the Vd (in vivo [2])?
The Vd was 2.1 L/kg.

What about the clearance (in vivo [2]) of the same molecule?
The clearance was 44.3 mL/min/kg.

And the half-life (in vivo [2])?
The half-life was 7.57 h.
